Data set [1] is described as follows: Hygroscopicity study (DVS). It is filed as physicochemical. As to conditions: 25° C. and 80% RH. The protocol: Dynamic vapor adsorption (DVS) curves were collected on DVS Intrinsic plus of Surface Measurement Systems (SMS) company. The relative humidity at 25° C. was corrected with the deliquescent points of LiCl, Mg(NO3)2 and KCl.
[…]

Data set [2] can be described thus: Solid stability test of the crystal form. It is filed as physicochemical. The protocol: The sample was placed at the bottom of an HPLC vial to form a thin layer. The samples were placed in a chamber at a constant temperature and humidity of 60° C./75% RH conditions and in a 92.5% RH desiccator. The bottles were sealed with a sealing film. Some small holes were punched in the sealing film to ensure that the samples were fully in contact with the ambient air. The caps of the sample bottles placed at 60° C. under light and light-shielding conditions (samples under light-shielding conditions were wrapped in tin foil) were tighten.

As to `Cc1cccc(CN2C(=O)c3nc(-c4nc(Nc5ccnn5C)ncc4C)sc3C23COC3)n1` [crystal form A of WX001], the hygroscopicity classification result in data set [1] is “almost no hygroscopicity”. The “ΔW, weight increase by moisture absorption” value in data set [1] (DVS) amounted to 0.1134%. In addition, the Crystal form result in data set [2] (0 day) is “Crystal form A”; in data set [2] (60° C., 5 days), “Crystal form A”; in data set [2] (60° C., 10 days) it was “Crystal form A”; in data set [2] (60° C./75% RH, 1 month) it was “Crystal form A”; in data set [2] (60° C./75% RH, 2 months), “Crystal form A”; in data set [2] (60° C./75% RH, 3 months) it was “Crystal form A”. For the same compound, the Crystal form entry in data set [2] (92.5% RH, 5 days) is listed as “Crystal form A”; in data set [2] (92.5% RH, 10 days) it was “Crystal form A”; in data set [2] (Control group of light-shielding, taking points simultaneously with visible light + UV group) it was “Crystal form A”; in data set [2] (Control group of light-shielding, taking points simultaneously with visible light group) it was “Crystal form A”; in data set [2] (Visible light (ICH conditions), reaching illumination of 1.2E+06 Lux · hrs), “Crystal form A”; in data set [2] (Visible light + UV (ICH conditions), reaching illumination of 200 W · hrs/m^2) it was “Crystal form A”. Besides, the “solid stability, conclusion” value in data set [2] (all conditions of Table 15) was “good stability”.

The values are drawn from patent publication US20240309018A1, “THIAZOLE-LACTAM-SPIROHETEROCYCLIC COMPOUNDS AND APPLICATIONS THEREOF” (D3 BIO (WUXI) CO., LTD, priority 2021, published 2024).
